{"source": "patent US12441679B2", "about": "“Acrylamide-substituted indane compounds and therapeutic use thereof” (Sanofi, priority 2020, dated 2025)", "data": [{"tested_on": "YAP1-TEAD and TAZ-TEAD activity (TEAD responsive promoter element)", "assay": "TEAD-Luciferase Reporter Assay (8XGTIIC-Luciferase construct stably integrated in tumor cell lines)", "type": "cell-based, human", "settings": "8XGTIIC-Luciferase reporter in tumor cell lines, 48 hrs compound treatment, 10 doses 1-10000 nM", "text": "(§1) TEAD-Luciferase Reporter Assay\n(§2) Luciferase-based gene reporter assays were used, employing the TEAD responsive promoter element that are stably integrated to different human tumor cell lines in order to monitor YAP1-TEAD and TAZ-TEAD activity and to study YAP1/TAZ-TEAD activity modulation by small molecule compounds. Luciferase-based gene reporter assays employing the GAPDH promoter element and stably integrated to different human tumor cell lines are used as counter screen control cell lines.\n(§3) Tumor cell lines with stable integration of the 8XGTIIC-Luciferase construct (Dupont et al., Nature 2011) or the GAPDH-Luciferase control plasmid, are seeded in culture medium in 96-well plates at a density of 8000 cells/well. Following an overnight incubation in a 37° C., 5% CO2 growth chamber, cells are treated with compounds described above at 10 doses ranging between 1 and 10000 nM for 48 hrs. After compound incubation, cells are lysed with Bright-Glo Luciferase Assay System (Promega E2620) and luciferase activity is measured using a luminescent plate reader.\n(§4) The inhibitory activity of the compounds with respect to luciferase activity is given by the concentration which inhibits 50% of activity of non-treated cells. IC50s are determined with a nonlinear regression model on XLfit software analysis (IDBS, UK).", "units": {"IC50": "nM"}, "values": [{"compound": "(S)—N-(1-((4-fluorophenyl)amino)-2,3-dihydro-1H-inden-5-yl)acrylamide [Example 6]", "IC50": 31}, {"compound": "(S)—N-(1-((3-(trifluoromethyl)phenyl)amino)-2,3-dihydro-1H-inden-5-yl)acrylamide [Example 3]", "IC50": 109}, {"compound": "C=CC(=O)Nc1ccc2c(c1)CCC2Nc1cccc(S(F)(F)(F)(F)F)c1", "note": "(stereo not shown) [Example 54, N-(1-((3-(pentafluoro-I6-sulfanyl)phenyl)amino)-2,3-dihydro-1H-inden-5-yl)acrylamide]", "IC50": 388}]}, {"tested_on": "YAP1-TEAD and TAZ-TEAD activity (TEAD responsive promoter element)", "assay": "TEAD-Luciferase Reporter Assay (8XGTIIC-Luciferase construct stably integrated in tumor cell lines)", "type": "cell-based, human", "settings": "Homo sapiens; 8XGTIIC-Luciferase reporter in tumor cell lines, 48 hrs compound treatment, 10 doses 1-10000 nM", "text": "as §1, §2, §3, §4", "units": {"IC50": "nM"}, "values": [{"compound": "C=CC(=O)Nc1ccc2c(c1)C(OC1CCC(F)(F)CC1)CC2", "note": "(stereo not shown) [Example 35, N-(3-((4,4-difluorocyclohexyl)oxy)-2,3-dihydro-1H-inden-5-yl)acrylamide]", "IC50": 583}, {"compound": "C=CC(=O)Nc1ccc2c(c1)C(NC1CCC(F)(F)CC1)CC2", "note": "(stereo not shown) [Example 70, N-(3-((4,4-difluorocyclohexyl)amino)-2,3-dihydro-1H-inden-5-yl)acrylamide]", "IC50": 5260}, {"compound": "C=CC(=O)Nc1ccc2c(c1)CC(NC1CCC(F)(F)CC1)C2", "note": "(stereo not shown) [Example 28, N-(2-((4,4-difluorocyclohexyl)amino)-2,3-dihydro-1H-inden-5-yl)acrylamide]", "IC50": 4020}, {"compound": "C=CC(=O)Nc1ccc2c(c1)C(Nc1cccc(C(F)(F)F)c1)C(F)C2", "note": "(stereo not shown) [Example 91, N-(2-fluoro-3-((3-(trifluoromethyl)phenyl)amino)-2,3-dihydro-1H-inden-5-yl)acrylamide]", "IC50": 209}, {"compound": "C=CC(=O)Nc1ccc2c(c1)C(Oc1cccc(C3CC3)c1)CC2", "note": "(stereo not shown) [Example 81, N-(3-(3-cyclopropylphenoxy)-2,3-dihydro-1H-inden-5-yl)acrylamide]", "IC50": 117}, {"compound": "C=CC(=O)Nc1ccc2c(c1)C(Oc1ccc(C(F)(F)F)cc1)C(F)C2", "note": "(stereo not shown) [Example 92, N-[2-fluoro-3-[4-(trifluoromethyl)phenoxy]-2,3-dihydro-1H-inden-5-yl]acrylamide]", "IC50": 95}, {"compound": "C=CC(=O)Nc1ccc2c(c1)C(Oc1ccc(C(F)(F)F)cc1)CC2", "note": "(stereo not shown) [Example 37, N-(3-(4-(trifluoromethyl)phenoxy)-2,3-dihydro-1H-inden-5-yl)acrylamide]", "IC50": 24}, {"compound": "C=CC(=O)N(C)c1ccc2c(c1)CCC2OC1CCC(C(F)(F)F)CC1", "note": "(stereo not shown) [Example 76, N-methyl-N-(1-((4-(trifluoromethyl)cyclohexyl)oxy)-2,3-dihydro-1H-inden-5-yl)acrylamide]", "IC50": 777}, {"compound": "C=CC(=O)Nc1ccc2c(c1)C(Oc1ccc(F)cc1)CC2", "note": "(stereo not shown) [Example 42, N-(3-(4-fluorophenoxy)-2,3-dihydro-1H-inden-5-yl)acrylamide]", "IC50": 29}, {"compound": "C=CC(=O)Nc1ccc2c(c1)C(Oc1ccc(F)c(F)c1)CC2", "note": "(stereo not shown) [Example 40, N-(3-(3,4-difluorophenoxy)-2,3-dihydro-1H-inden-5-yl)acrylamide]", "IC50": 15}, {"compound": "C=CC(=O)Nc1ccc2c(c1)C(Oc1cccc(Cl)c1)CC2", "note": "(stereo not shown) [Example 78, N-(3-(3-chlorophenoxy)-2,3-dihydro-1H-inden-5-yl)acrylamide]", "IC50": 52}, {"compound": "C=CC(=O)Nc1ccc2c(c1)C(OCCC(F)(F)F)CC2", "note": "(stereo not shown) [Example 75, N-(3-(3,3,3-trifluoropropoxy)-2,3-dihydro-1H-inden-5-yl)acrylamide]", "IC50": 4720}, {"compound": "C=CC(=O)Nc1ccc2c(c1)C[C@@H](Nc1cccc(C(F)(F)F)c1)C2", "note": "(single isomer, unassigned) [Example 51]", "IC50": 4330}, {"compound": "C=CC(=O)Nc1ccc2c(c1)CC[C@H]2Nc1cc(C(F)(F)F)ccn1", "note": "(single isomer, unassigned) [Example 58]", "IC50": 216}, {"compound": "C=CC(=O)N(C)c1ccc2c(c1)CCC2Oc1ccc(C(F)(F)F)cc1", "note": "(stereo not shown) [Example 83, N-methyl-N-(1-(4-(trifluoromethyl)phenoxy)-2,3-dihydro-1H-inden-5-yl)acrylamide]", "IC50": 109}, {"compound": "C=CC(=O)N(C)c1ccc2c(c1)CCC2Nc1cccc(C(F)(F)F)c1", "note": "(stereo not shown) [Example 4, N-methyl-N-(1-((3-(trifluoromethyl)phenyl)amino)-2,3-dihydro-1H-inden-5-yl)acrylamide]", "IC50": 142}, {"compound": "C=CC(=O)Nc1ccc2c(c1)CCC2Oc1ccc(C(F)(F)F)cc1", "note": "(stereo not shown) [Example 82, N-(1-(4-(trifluoromethyl)phenoxy)-2,3-dihydro-1H-inden-5-yl)acrylamide]", "IC50": 31}, {"compound": "C=CC(=O)Nc1ccc2c(c1)C(Oc1ccc(F)cc1F)CC2", "note": "(stereo not shown) [Example 44, N-(3-(2,4-difluorophenoxy)-2,3-dihydro-1H-inden-5-yl)acrylamide]", "IC50": 38}, {"compound": "C=CC(=O)Nc1ccc2c(c1)CCC2Nc1ccc(F)nc1", "note": "(stereo not shown) [Example 19, N-(1-((6-fluoropyridin-3-yl)amino)-2,3-dihydro-1H-inden-5-yl)acrylamide]", "IC50": 503}, {"compound": "C=CC(=O)Nc1ccc2c(c1)CCC2Nc1cccc(OC)c1", "note": "(stereo not shown) [Example 17, N-(1-((3-methoxyphenyl)amino)-2,3-dihydro-1H-inden-5-yl)acrylamide]", "IC50": "> 10000"}, {"compound": "C=CC(=O)Nc1ccc2c(c1)[C@@H](Nc1cccc(C(F)(F)F)c1)[C@H](O)C2", "note": "(racemic) [Example 96, N-[rac-(2R,3R)-2-hydroxy-3-[3-(trifluoromethyl)anilino]-2,3-dihydro-1H-inden-5-yl]acrylamide]", "IC50": 1980}, {"compound": "C=CC(=O)Nc1ccc2c(c1)CCC2N(C)c1ccc(C(F)(F)F)cc1", "note": "(stereo not shown) [Example 64, N-(1-(methyl(4-(trifluoromethyl)phenyl)amino)-2,3-dihydro-1H-inden-5-yl)acrylamide]", "IC50": 806}, {"compound": "C=CC(=O)Nc1ccc2c(c1)C(Oc1ccccc1)CC2", "note": "(stereo not shown) [Example 38, N-(3-phenoxy-2,3-dihydro-1H-inden-5-yl)acrylamide]", "IC50": 74}, {"compound": "C=CC(=O)Nc1cc(F)c2c(c1)CCC2Nc1cccc(C(F)(F)F)c1", "note": "(stereo not shown) [Example 67, N-[7-fluoro-1-[3-(trifluoromethyl)anilino]-2,3-dihydro-1H-inden-5-yl]acrylamide]", "IC50": 53}, {"compound": "C=CC(=O)Nc1ccc2c(c1)CC(N[C@H]1CC[C@@H](C(F)(F)F)CC1)C2", "note": "(relative stereo) [Example 26, N-(2-(((cis)-4-(trifluoromethyl)cyclohexyl)amino)-2,3-dihydro-1H-inden-5-yl)acrylamide]", "IC50": "> 10000"}, {"compound": "C=CC(=O)Nc1ccc2c(c1)CCC2Oc1cccc(C(F)(F)F)c1", "note": "(stereo not shown) [Example 45, N-(1-(3-(trifluoromethyl)phenoxy)-2,3-dihydro-1H-inden-5-yl)acrylamide]", "IC50": 12}, {"compound": "C=CC(=O)Nc1ccc2c(c1)C(C)(C)CC2Nc1ccc(C(F)(F)F)cc1", "note": "(stereo not shown) [Example 66, N-(3,3-dimethyl-1-((4-(trifluoromethyl)phenyl)amino)-2,3-dihydro-1H-inden-5-yl)acrylamide]", "IC50": 863}, {"compound": "C=CC(=O)Nc1ccc2c(c1)C(C)(C)CC2Nc1cccc(C(F)(F)F)c1", "note": "(stereo not shown) [Example 65, N-(3,3-dimethyl-1-((3-(trifluoromethyl)phenyl)amino)-2,3-dihydro-1H-inden-5-yl)acrylamide]", "IC50": 1850}, {"compound": "C=CC(=O)Nc1ccc2c(c1)CCC2Nc1ccc(F)cn1", "note": "(stereo not shown) [Example 21, N-(1-((5-fluoropyridin-2-yl)amino)-2,3-dihydro-1H-inden-5-yl)acrylamide]", "IC50": 262}, {"compound": "C=CC(=O)Nc1ccc2c(c1)CCC2NCc1ccc(C(F)(F)F)cc1", "note": "(stereo not shown) [Example 25, N-(1-((4-(trifluoromethyl)benzyl)amino)-2,3-dihydro-1H-inden-5-yl)acrylamide]", "IC50": 8240}, {"compound": "C=CC(=O)Nc1ccc2c(c1)C(O[C@H]1CC[C@H](C(F)(F)F)CC1)CC2", "note": "(relative stereo) [Example 36, N-(3-(((trans)-4-(trifluoromethyl)cyclohexyl)oxy)-2,3-dihydro-1H-inden-5-yl)acrylamide]", "IC50": 99}, {"compound": "C=CC(=O)Nc1ccc2c(c1)C[C@@H](Nc1cccc(F)c1)C2", "note": "(single isomer, unassigned) [Example 48]", "IC50": 69}, {"compound": "C=CC(=O)Nc1ccc2c(c1)CC[C@@H]2Nc1cc(C(F)(F)F)ccn1", "note": "(single isomer, unassigned) [Example 57]", "IC50": 134}, {"compound": "C=CC(=O)Nc1ccc2c(c1)[C@H](Oc1ccc(C(F)(F)F)cc1)CC2", "note": "(single isomer, unassigned) [Example 87]", "IC50": 28}, {"compound": "C=CC(=O)N(C)c1ccc2c(c1)CCC2Nc1ccc(C(F)(F)F)cc1", "note": "(stereo not shown) [Example 69, N-methyl-N-(1-((4-(trifluoromethyl)phenyl)amino)-2,3-dihydro-1H-inden-5-yl)acrylamide]", "IC50": 349}, {"compound": "C=CC(=O)Nc1ccc2c(c1)C(Oc1ccc(C(F)(F)F)cn1)CC2", "note": "(stereo not shown) [Example 88, N-[3-[[5-(trifluoromethyl)pyridin-2-yl]oxy]-2,3-dihydro-1H-inden-5-yl]acrylamide]", "IC50": 51}, {"compound": "C=CC(=O)Nc1ccc2c(c1F)CCC2Nc1ccc(C(F)(F)F)cc1", "note": "(stereo not shown) [Example 68, N-[4-fluoro-1-[4-(trifluoromethyl)anilino]-2,3-dihydro-1H-inden-5-yl]acrylamide]", "IC50": 290}, {"compound": "C=CC(=O)Nc1ccc2c(c1)C(Nc1cc(F)cc(F)c1)CC2", "note": "(stereo not shown) [Example 53, N-(3-((3,5-difluorophenyl)amino)-2,3-dihydro-1H-inden-5-yl)acrylamide]", "IC50": 57}, {"compound": "C=CC(=O)Nc1ccc2c(c1)CC[C@H]2Nc1ccc(F)cc1", "note": "[Example 7, (R)—N-(1-((4-fluorophenyl)amino)-2,3-dihydro-1H-inden-5-yl)acrylamide]", "IC50": 28}, {"compound": "C=CC(=O)Nc1ccc2c(c1)[C@@H](Oc1ccc(C(F)(F)F)cc1)CC2", "note": "(single isomer, unassigned) [Example 86]", "IC50": 134}]}]}
